Assay results taken from PMC9881875 (bioRxiv, 2023).
Residues, ends and D or L forms follow the SMILES beside them.

What was measured:
NHERF1 PDZ1 (N1P1) = molecular target: T1, NHERF1 PDZ1 (N1P1) (Homo sapiens, UniProt O14745); test: Fluorescence polarization competition, N1P1
T1 sequence (O14745 1-139): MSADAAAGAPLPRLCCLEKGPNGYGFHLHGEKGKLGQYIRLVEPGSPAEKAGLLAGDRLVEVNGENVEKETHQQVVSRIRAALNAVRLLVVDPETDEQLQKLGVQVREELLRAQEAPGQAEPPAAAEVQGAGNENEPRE

PTPN3 PDZ (PTPN3) [1] = molecular target: T2, PTPN3 PDZ (PTPN3) (Homo sapiens, UniProt P26045); test: Fluorescence polarization competition; assay type: binding
T2 sequence (P26045 505-597): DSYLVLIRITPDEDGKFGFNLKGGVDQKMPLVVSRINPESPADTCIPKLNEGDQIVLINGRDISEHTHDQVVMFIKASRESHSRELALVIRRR

SNX27 PDZ (SNX27) = SNX27 PDZ (SNX27) (Rattus norvegicus, UniProt Q8K4V4); test: Fluorescence polarization competition, SNX27; assay type: binding
DLG1 PDZ1 (DLG1–1) [2] = molecular target: T3, DLG1 PDZ1 (DLG1–1) (Homo sapiens, UniProt Q12959); test: Fluorescence polarization competition, DLG1–1; assay type: binding
MAGI1 PDZ2 (MAGI1–2) [3] = molecular target: T4, MAGI1 PDZ2 (MAGI1–2) (Homo sapiens, UniProt Q96QZ7); test: Fluorescence polarization competition; assay type: binding
SCRIB PDZ1 (SCRIB-1) [4] = molecular target: T5, SCRIB PDZ1 (SCRIB-1) (Homo sapiens, UniProt Q14160); test: Fluorescence polarization competition, SCRIB-1; assay type: binding
NHERF2 PDZ2 (N2P2) = NHERF2 PDZ2 (N2P2) (Homo sapiens, UniProt Q15599); test: Fluorescence polarization competition, N2P2
DLG1 PDZ1 (DLG1–1) [5] = molecular target: T3, DLG1 PDZ1 (DLG1–1); test: Fluorescence polarization direct binding of reporter peptide, DLG1–1
SCRIB PDZ1 (SCRIB-1) [6] = molecular target: T5, SCRIB PDZ1 (SCRIB-1); test: Fluorescence polarization direct binding of reporter peptide, SCRIB-1
MAGI1 PDZ2 (MAGI1–2) [7] = molecular target: T4, MAGI1 PDZ2 (MAGI1–2); test: Fluorescence polarization direct binding of reporter peptide, MAGI1–2
PTPN3 PDZ (PTPN3) [8] = molecular target: T2, PTPN3 PDZ (PTPN3); test: Fluorescence polarization direct binding of reporter peptide, PTPN3
TIP-1 PDZ = molecular target: T6, TIP-1 PDZ (Homo sapiens, UniProt O14907); test: Fluorescence polarization competition, TIP-1 PDZ
T6 sequence (O14907 9-120): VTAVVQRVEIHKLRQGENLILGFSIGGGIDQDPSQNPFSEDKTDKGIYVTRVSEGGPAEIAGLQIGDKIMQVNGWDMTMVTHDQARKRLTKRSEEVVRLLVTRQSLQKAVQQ

CAL PDZ = CAL PDZ (Homo sapiens, UniProt Q9HD26); test: Fluorescence polarization competition, CAL PDZ

Q: With `CC(C)C[C@H](NC(=O)[C@H](CCC(N)=O)NC(=O)[C@@H](NC(=O)[C@H](CC(=O)O)NC(=O)[C@H](CCC(N)=O)NC(=O)[C@@H](NC(=O)[C@@H](NC(=O)[C@H](CCCNC(=N)N)NC(=O)[C@H](CO)NC(=O)[C@@H](N)CO)[C@@H](C)O)C(C)C)[C@@H](C)O)C(=O)O` [CFTRP1Q] (H-SSRTVQDTQL-OH) as the compound, how does the Ki (NHERF1 PDZ1 (N1P1)) read?
A: 25 ± 7 µM

Q: What about the IC50 (PTPN3 PDZ (PTPN3) [1]) of the same compound?
A: 51 ± 14 µM

Q: What about the Ki (SNX27 PDZ (SNX27)) of the same compound?
A: 0.26 ± 0.05 µM

Q: And the Ki (DLG1 PDZ1 (DLG1–1) [2])?
A: 250 ± 150 µM

Q: And the IC50 (MAGI1 PDZ2 (MAGI1–2) [3])?
A: 420 ± 210 µM

Q: What about the Ki (SCRIB PDZ1 (SCRIB-1) [4]) of the same compound?
A: 150 ± 60 µM

Q: And the Ki (NHERF2 PDZ2 (N2P2))?
A: 3.1 ± 0.5 µM

Q: How did the Ki (NHERF1 PDZ1 (N1P1)) turn out when `CC(C)C[C@H](NC(=O)[C@H](CCCNC(=N)N)NC(=O)[C@@H](NC(=O)[C@H](CC(=O)O)NC(=O)[C@H](CCCNC(=N)N)NC(=O)[C@@H](NC(=O)[C@@H](NC(=O)[C@H](CCCNC(=N)N)NC(=O)[C@H](CO)NC(=O)[C@@H](N)CO)[C@@H](C)O)C(C)C)[C@@H](C)O)C(=O)O` [CFTRP4R] (H-SSRTVRDTRL-OH) was run?
A: 6.9 ± 2.7 µM

Q: What about the IC50 (PTPN3 PDZ (PTPN3) [1]) of the same compound?
A: 85 ± 39 µM

Q: And the Ki (SNX27 PDZ (SNX27))?
A: 0.44 ± 0.06 µM

Q: What about the Ki (DLG1 PDZ1 (DLG1–1) [2]) of the same compound?
A: 510 ± 230 µM

Q: What about the IC50 (MAGI1 PDZ2 (MAGI1–2) [3]) of the same compound?
A: 460 ± 200 µM

Q: What about the Ki (SCRIB PDZ1 (SCRIB-1) [4]) of the same compound?
A: 370 ± 170 µM

Q: And the Ki (NHERF2 PDZ2 (N2P2))?
A: 1.7 ± 0.5 µM

Q: Which results are given for `CC(C)C[C@H](NC(=O)[C@H](CCCNC(=N)N)NC(=O)[C@@H](NC(=O)[C@H](CC(=O)O)NC(=O)[C@H](CCC(N)=O)NC(=O)[C@H](CCCNC(=N)N)NC(=O)[C@@H](NC(=O)[C@H](CCCNC(=N)N)NC(=O)[C@H](CO)NC(=O)[C@@H](N)CO)[C@@H](C)O)[C@@H](C)O)C(=O)O` [CFTRP5R] (H-SSRTRQDTRL-OH)?
A: Ki (NHERF1 PDZ1 (N1P1)): 1.8 ± 0.3 µM; IC50 (PTPN3 PDZ (PTPN3) [1]): 120 ± 20 µM; Ki (SNX27 PDZ (SNX27)): 7.4 ± 4.5 µM; Ki (DLG1 PDZ1 (DLG1–1) [2]): 430 ± 200 µM; IC50 (MAGI1 PDZ2 (MAGI1–2) [3]): 220 ± 50 µM; Ki (SCRIB PDZ1 (SCRIB-1) [4]): 50 ± 10 µM; Ki (NHERF2 PDZ2 (N2P2)): 0.49 ± 0.38 µM

Q: `CC(C)C[C@H](NC(=O)[C@H](CCC(N)=O)NC(=O)[C@@H](NC(=O)[C@H](CCC(=O)O)NC(=O)[C@H](CCCNC(=N)N)NC(=O)[C@H](CCCNC(=N)N)NC(=O)[C@@H](NC(=O)[C@H](CCCNC(=N)N)NC(=O)[C@H](CO)NC(=O)[C@H](CO)NC(=S)Nc1ccc2c(c1)C(=O)OC21c2ccc(O)cc2Oc2cc(O)ccc21)[C@@H](C)O)[C@@H](C)O)C(=O)O` [F*-HPV16 E6] was tested. Which Kd (DLG1 PDZ1 (DLG1–1) [5]) did it give?
A: 17 ± 4 µM

Q: What about the Kd (SCRIB PDZ1 (SCRIB-1) [6]) of the same compound?
A: 5.1 ± 1.7 µM

Q: And the Kd (MAGI1 PDZ2 (MAGI1–2) [7])?
A: 12 ± 4 µM

Q: What about the Kd (PTPN3 PDZ (PTPN3) [8]) of the same compound?
A: 2 ± 1 µM

Q: Which Ki (NHERF1 PDZ1 (N1P1)) does the source give for `CC(C)C[C@H](NC(=O)[C@H](CCC(N)=O)NC(=O)[C@@H](NC(=O)[C@H](CCC(=O)O)NC(=O)[C@H](CCCNC(=N)N)NC(=O)[C@H](CCCNC(=N)N)NC(=O)[C@@H](NC(=O)[C@H](CCCNC(=N)N)NC(=O)[C@H](CO)NC(=O)[C@@H](N)CO)[C@@H](C)O)[C@@H](C)O)C(=O)O` [HPV16 E6] here?
A: 100 ± 50 µM

Q: And the Ki (TIP-1 PDZ)?
A: 11 ± 1 µM

Q: And the IC50 (PTPN3 PDZ (PTPN3) [1])?
A: 10.1 µM

Q: What about the Ki (SNX27 PDZ (SNX27)) of the same compound?
A: 1.5 ± 0.5 µM

Q: What about the Ki (DLG1 PDZ1 (DLG1–1) [2]) of the same compound?
A: 22 ± 12 µM

Q: And the IC50 (MAGI1 PDZ2 (MAGI1–2) [3])?
A: 3.7 ± 0.1 µM

Q: And the Ki (SCRIB PDZ1 (SCRIB-1) [4])?
A: 20 ± 7 µM

Q: And the Ki (NHERF2 PDZ2 (N2P2))?
A: 17 ± 6 µM

Q: Which results are given for `CC(C)C[C@H](NC(=O)[C@H](CCCNC(=N)N)NC(=O)[C@@H](NC(=O)[C@H](CCC(=O)O)NC(=O)[C@H](CCCNC(=N)N)NC(=O)[C@H](CCCNC(=N)N)NC(=O)[C@@H](NC(=O)[C@H](CCCNC(=N)N)NC(=O)[C@H](CO)NC(=O)[C@@H](N)CO)[C@@H](C)O)[C@@H](C)O)C(=O)O` [HPVP1R] (H-SSRTRRETRL-OH)?
A: Ki (NHERF1 PDZ1 (N1P1)): 8.8 ± 3.4 µM; Ki (TIP-1 PDZ): 22 ± 5 µM; IC50 (PTPN3 PDZ (PTPN3) [1]): 18 ± 1 µM; Ki (SNX27 PDZ (SNX27)): 2.1 ± 0.7 µM; Ki (DLG1 PDZ1 (DLG1–1) [2]): 39 ± 11 µM; IC50 (MAGI1 PDZ2 (MAGI1–2) [3]): 5.2 ± 2.4 µM; Ki (CAL PDZ): 42 ± 10 µM; Ki (SCRIB PDZ1 (SCRIB-1) [4]): 13 ± 2 µM; Ki (NHERF2 PDZ2 (N2P2)): 6.9 ± 1.1 µM

Q: Which Ki (NHERF1 PDZ1 (N1P1)) does the source give for `CC(C)C[C@H](NC(=O)[C@H](CCC(N)=O)NC(=O)[C@@H](NC(=O)[C@H](CCC(=O)O)NC(=O)[C@H](CCC(N)=O)NC(=O)[C@H](CCCNC(=N)N)NC(=O)[C@@H](NC(=O)[C@H](CCCNC(=N)N)NC(=O)[C@H](CO)NC(=O)[C@@H](N)CO)[C@@H](C)O)[C@@H](C)O)C(=O)O` [HPVP4Q] (H-SSRTRQETQL-OH) here?
A: 21 ± 7 µM

Q: What about the Ki (TIP-1 PDZ) of the same compound?
A: 34 ± 2 µM

Q: And the IC50 (PTPN3 PDZ (PTPN3) [1])?
A: 18 ± 5 µM

Q: What about the Ki (SNX27 PDZ (SNX27)) of the same compound?
A: 0.51 ± 0.22 µM

Q: And the Ki (DLG1 PDZ1 (DLG1–1) [2])?
A: 23 ± 6 µM

Q: And the IC50 (MAGI1 PDZ2 (MAGI1–2) [3])?
A: 3.8 ± 2.1 µM

Q: What about the Ki (CAL PDZ) of the same compound?
A: 56 ± 6 µM

Q: What about the Ki (SCRIB PDZ1 (SCRIB-1) [4]) of the same compound?
A: 13 ± 2 µM

Q: And the Ki (NHERF2 PDZ2 (N2P2))?
A: 5.2 ± 0.6 µM

Q: Which Ki (NHERF1 PDZ1 (N1P1)) does the source give for `CC(C)C[C@H](NC(=O)[C@H](CCC(N)=O)NC(=O)[C@@H](NC(=O)[C@H](CCC(=O)O)NC(=O)[C@H](CCCNC(=N)N)NC(=O)[C@@H](NC(=O)[C@@H](NC(=O)[C@H](CCCNC(=N)N)NC(=O)[C@H](CO)NC(=O)[C@@H](N)CO)[C@@H](C)O)C(C)C)[C@@H](C)O)C(=O)O` [HPVP5V] (H-SSRTVRETQL-OH) here?
A: 67 ± 28 µM

Q: And the Ki (TIP-1 PDZ)?
A: 35 ± 4 µM

Q: What about the IC50 (PTPN3 PDZ (PTPN3) [1]) of the same compound?
A: 3.4 ± 0.3 µM

Q: And the Ki (SNX27 PDZ (SNX27))?
A: 0.11 ± 0.03 µM

Q: What about the Ki (DLG1 PDZ1 (DLG1–1) [2]) of the same compound?
A: 13 ± 4 µM

Q: What about the IC50 (MAGI1 PDZ2 (MAGI1–2) [3]) of the same compound?
A: 4.4 ± 1.1 µM

Q: And the Ki (CAL PDZ)?
A: 190 ± 10 µM

Q: And the Ki (SCRIB PDZ1 (SCRIB-1) [4])?
A: 4.5 ± 2.8 µM

Q: And the Ki (NHERF2 PDZ2 (N2P2))?
A: 7 ± 3.6 µM
